Broadly, the IC50 is the concentration needed to halve the response being measured. Usually melting point stands for the temperature of the solid-liquid transition.

In the first series the test system is Caco-2 cells. In words: Counter-screen on Caco-2 cells, ATP level by luminescence (ATPlite), 48 h incubation. The class given is cell-based, human. The note with it: Homo sapiens, Caco-2, 48 h, atmospheric O2, 5% CO2, 48 h, 37 °C. Here is the method:
Trophozoites of G. intestinalis strain WB clone C6 (ATCC No. 50803TM) were cultured axenically at 37^∘C in 25-cm^2 flasks containing Diamond’s TYI-S-33 medium supplemented with 10% bovine calf serum, 1 mg/mL bovine bile, 0.1 g/L streptomycin and 100 U/mL penicillin. […] Human epithelial colorectal adenocarcinoma (Caco-2) cells were grown in 25-cm^2 flasks in EMEM supplemented with 1% (v/v) non-essential amino acids, 2 mM glutamine, 5% (v/v) fetal bovine serum, 0.1 g/L streptomycin, and 100 U/mL penicillin.
Cells were detached with 0.5% trypsin-EDTA and seeded in sterile 96-well white clear-bottom plates at the same density of Giardia trophozoites and at increasing concentration of the compound to be tested, as described above. The assays were carried out exactly as reported for the Giardia trophozoites, except that the plates were incubated (still at 37^∘C) at atmospheric O2 level, 5% CO2, and 95% humidity. Each drug concentration was tested in at least seven replicates. MTZ was used as an internal […] control in the assay. Following 48 h incubation with each compound, according to the manufacturer instructions, 100 μL of the ATPlite^TM luminescence assay system (Perkin Elmer) was added to each well for one-step lysis and ATP level detection by luminescence.
Luminometric data were calibrated using ATP standard curves and normalized to the ATP level measured in control DMSO-treated cells (taken as 100%). The measured ATP level percentage was plotted as a function of the compound concentration and the half-maximal inhibitory concentration (IC50) was obtained by fitting the resulting titration profile to the Hill equation ([Goutelle et al., 2008]). The selectivity index (SI) of the compounds was then calculated as the ratio between the IC50 value measured on human cells over the value determined on Giardia trophozoites (SI = IC50,Caco-2/IC50,Giardia).
Selectivity of the newly synthesized compounds toward Giardia was assessed by running a counter-screen on human epithelial Caco-2 cells. […] This allowed us to calculate the compounds SI, defined as the ratio between the IC50 value measured on human cells over the value determined on Giardia trophozoites.
Background: A counterscreen serves to expose hits that act by an unwanted route or on another target.
In turn, `COc1cccc(C(=O)/C=C/c2cc3ccccc3n(Cc3cn(-c4ccccc4)nn3)c2=O)c1` [Compound 66] came in with an IC50 of at least 40 µM.

Consider `COc1ccc(-n2cc(Cn3c(=O)c(/C=C/C(=O)c4ccc(C)cc4)cc4ccccc43)nn2)cc1` [Compound 28], for which the IC50 is at least 80 µM.

`COc1ccc(-n2cc(Cn3c(=O)c(/C=C/C(=O)c4ccccc4F)cc4ccccc43)nn2)cc1` [Compound 23] came in with an IC50 of at least 100 µM.

For `Cc1ccc(-n2cc(Cn3c(=O)c(/C=C/C(=O)c4ccccc4F)cc4ccccc43)nn2)cc1` [Compound 32], the concentration for half-maximal inhibition (IC50) was determined as 17.6 µM.

`COc1ccccc1C(=O)/C=C/c1cc2ccccc2n(Cc2cn(-c3ccc(F)cc3)nn2)c1=O` [Compound 47] yielded an IC50 of at least 20 µM.

As to `COc1ccc(C(=O)/C=C/c2cc3ccccc3n(Cc3cn(-c4ccc(C)cc4)nn3)c2=O)cc1` [Compound 40], the IC50 is at least 60 µM.

As for `O=C(/C=C/c1cc2ccccc2n(Cc2cn(-c3ccccc3)nn2)c1=O)c1ccccc1F` [Compound 59], the IC50 worked out at 11.2 µM.

On to `O=C(/C=C/c1cc2ccccc2n(Cc2cn(-c3ccc(F)cc3)nn2)c1=O)c1ccc(F)cc1` [Compound 43], for which the IC50 stood at 7 µM.

The same series, now with this note: atmospheric O2, 5% CO2, 48 h, 37 °C.
In turn, `COc1cccc(C(=O)/C=C/c2cc3ccccc3n(Cc3cn(-c4ccccc4)nn3)c2=O)c1` [Compound 66] came in with an IC50 of at least 50 µM.

Test system in a further series: not given
Experiment: not given
Conditions: not given
Compound `COc1cccc(C(=O)/C=C/c2cc3ccccc3n(Cc3cn(-c4ccccc4)nn3)c2=O)c1` [Compound 66] came in with a melting point of 224 to 226 °C.

In the case of `COc1ccc(-n2cc(Cn3c(=O)c(/C=C/C(=O)c4ccc(C)cc4)cc4ccccc43)nn2)cc1` [Compound 28], the melting point fell in the range of 213 to 215 °C.

The compound `COc1ccc(-n2cc(Cn3c(=O)c(/C=C/C(=O)c4ccccc4F)cc4ccccc43)nn2)cc1` [Compound 23] yielded a melting point of 215 to 217 °C.

In turn, `Cc1ccc(-n2cc(Cn3c(=O)c(/C=C/C(=O)c4ccccc4F)cc4ccccc43)nn2)cc1` [Compound 32] gave a melting point of 197 to 199 °C.

Consider `COc1ccccc1C(=O)/C=C/c1cc2ccccc2n(Cc2cn(-c3ccc(F)cc3)nn2)c1=O` [Compound 47], for which the melting point lay within 132 to 134 °C.

In turn, `COc1ccc(C(=O)/C=C/c2cc3ccccc3n(Cc3cn(-c4ccc(C)cc4)nn3)c2=O)cc1` [Compound 40] gave a melting point of 182 to 184 °C.

Regarding `O=C(/C=C/c1cc2ccccc2n(Cc2cn(-c3ccccc3)nn2)c1=O)c1ccccc1F` [Compound 59], the melting point lay within 172 to 174 °C.

`O=C(/C=C/c1cc2ccccc2n(Cc2cn(-c3ccc(F)cc3)nn2)c1=O)c1ccc(F)cc1` [Compound 43]: the melting point lay within 202 to 204 °C.

The next series concerns Giardia intestinalis trophozoites. Briefly: Drug susceptibility of Giardia trophozoites, ATP level by luminescence (BacTiter-Glo), 48 h incubation, anaerobic or microaerobic. To be noted: Giardia duodenalis, 48 h, anaerobic conditions (Anaerocult A), 48 h, 37 °C, ATP level; read-out: Giardia (anaerobiosis) IC50. The class given is cell-based, Giardia intestinalis strain WB clone C6. The method, then: Trophozoites of G. intestinalis strain WB clone C6 (ATCC No. 50803TM) were cultured axenically at 37^∘C in 25-cm^2 flasks containing Diamond's TYI-S-33 medium supplemented with 10% bovine calf serum, 1 mg/mL bovine bile, 0.1 g/L streptomycin and 100 U/mL penicillin. Typically, 50 ml medium was inoculated with 25 × 10^6 cells and after 2 days cells were harvested by chilling the flasks on ice for 30 min for drug susceptibility assays. […] The assays were performed following the procedure described in [Bahadur et al. (2014)], using sterile 96-well white clear-bottom plates. […] Each drug concentration was tested in at least six replicates. MTZ was used as an internal positive control in the assay. The microtiter plates were then incubated at 37^∘C under anaerobic or microaerobic conditions, ensured by the Anaerocult® A or the Anaerocult® […] (Merck), respectively. […] Following 48 h incubation with the compound to be tested, 100 μL of the BacTiter-Glo^TM Microbial Cell Viability Assay System reagent (Promega) was added to each well for one-step lysis and ATP level detection. Plates were then incubated at room temperature for 15 min and ATP levels finally detected by luminescence on a plate reader (Wallac Victor3 1420 Multilabel Counter, PerkinElmer). Luminometric data were calibrated using ATP standard curves and normalized to the ATP level measured in control DMSO-treated cells (taken as 100%). The measured ATP level percentage was plotted as a function of the compound concentration and the half-maximal inhibitory concentration (IC50) was obtained by fitting the resulting titration profile to the Hill equation ([Goutelle et al., 2008]). The selectivity index (SI) of the compounds was then calculated as the ratio between the IC50 value measured on human cells over the value determined on Giardia trophozoites (SI = IC50,Caco-2/IC50,Giardia). The antigiardial activity of the novel compounds 23-67 was tested under both anaerobic and microaerobic conditions. According to ([Dunn et al., 2010]; [Bahadur et al., 2014]), susceptibility of Giardia trophozoites to increasing concentrations of each compound was assessed based on ATP level determination by luminescence. Dose-response curves for each compound were obtained after 48 h-incubation and compared to the data collected under identical conditions with MTZ, the drug of choice for treatment of giardiasis. […] Typical dose-response curves are shown in Figure 2, whereas the IC50 values measured for the synthetic compounds and MTZ under anaerobic and microaerobic conditions are reported in Table 1. […] Under anaerobic conditions, 18 out of the 45 synthetic compounds were as effective as MTZ or more under identical conditions (see Table 1).
For the compound `COc1cccc(C(=O)/C=C/c2cc3ccccc3n(Cc3cn(-c4ccccc4)nn3)c2=O)c1` [Compound 66], the IC50 amounted to 3.2 µM.

As for `COc1ccc(-n2cc(Cn3c(=O)c(/C=C/C(=O)c4ccc(C)cc4)cc4ccccc43)nn2)cc1` [Compound 28], the IC50 came to 5.4 µM.

On to `COc1ccc(-n2cc(Cn3c(=O)c(/C=C/C(=O)c4ccccc4F)cc4ccccc43)nn2)cc1` [Compound 23], for which the IC50 was at least 100 µM.

Turning to `Cc1ccc(-n2cc(Cn3c(=O)c(/C=C/C(=O)c4ccccc4F)cc4ccccc43)nn2)cc1` [Compound 32], the 50% inhibitory concentration (IC50) came out at 3.2 µM.

As for `COc1ccccc1C(=O)/C=C/c1cc2ccccc2n(Cc2cn(-c3ccc(F)cc3)nn2)c1=O` [Compound 47], the IC50 was 2.7 µM.

With `COc1ccc(C(=O)/C=C/c2cc3ccccc3n(Cc3cn(-c4ccc(C)cc4)nn3)c2=O)cc1` [Compound 40], the IC50 is at least 15 µM.

For `O=C(/C=C/c1cc2ccccc2n(Cc2cn(-c3ccccc3)nn2)c1=O)c1ccccc1F` [Compound 59], the IC50 stood at 1.9 µM.

For the compound `O=C(/C=C/c1cc2ccccc2n(Cc2cn(-c3ccc(F)cc3)nn2)c1=O)c1ccc(F)cc1` [Compound 43], the IC50 came out at 1.2 µM.

The series is the same for the next values; noted with them: Giardia duodenalis, 48 h, microaerobic conditions (~5% O2, Anaerocult C), 48 h, 37 °C, ATP level; read-out: Giardia (microaerobiosis) IC50.
As to `COc1cccc(C(=O)/C=C/c2cc3ccccc3n(Cc3cn(-c4ccccc4)nn3)c2=O)c1` [Compound 66], the IC50 is 1.6 µM.

Consider `COc1ccc(-n2cc(Cn3c(=O)c(/C=C/C(=O)c4ccc(C)cc4)cc4ccccc43)nn2)cc1` [Compound 28], for which the IC50 was determined as 1.5 µM.

As to `COc1ccc(-n2cc(Cn3c(=O)c(/C=C/C(=O)c4ccccc4F)cc4ccccc43)nn2)cc1` [Compound 23], the IC50 is at least 20 µM.

Turning to `Cc1ccc(-n2cc(Cn3c(=O)c(/C=C/C(=O)c4ccccc4F)cc4ccccc43)nn2)cc1` [Compound 32], the IC50 amounted to 0.6 µM.

On to `COc1ccccc1C(=O)/C=C/c1cc2ccccc2n(Cc2cn(-c3ccc(F)cc3)nn2)c1=O` [Compound 47], for which the IC50 worked out at 0.3 µM.

Consider `COc1ccc(C(=O)/C=C/c2cc3ccccc3n(Cc3cn(-c4ccc(C)cc4)nn3)c2=O)cc1` [Compound 40], for which the concentration for half-maximal inhibition (IC50) is 2.4 µM.

Regarding `O=C(/C=C/c1cc2ccccc2n(Cc2cn(-c3ccccc3)nn2)c1=O)c1ccccc1F` [Compound 59], the 50% inhibitory concentration (IC50) is 0.4 µM.

As for `O=C(/C=C/c1cc2ccccc2n(Cc2cn(-c3ccc(F)cc3)nn2)c1=O)c1ccc(F)cc1` [Compound 43], the IC50 turned out to be 0.3 µM.

The series is the same for the next values; noted with them: anaerobic conditions, relative to MTZ.
As to `O=C(/C=C/c1cc2ccccc2n(Cc2cn(-c3ccc(F)cc3)nn2)c1=O)c1ccc(F)cc1` [Compound 43], the “fold more efficient than MTZ against Giardia” value is recorded as “three to fourfold”.

Staying with this series, now noted: human (Caco-2 cells) versus Giardia intestinalis, Caco-2, SI = IC50,Caco-2/IC50,Giardia; Giardia under anaerobiosis; read-out: Selectivity (IC50,Caco/IC50,Giardia) Anaerobiosis.
As for `COc1cccc(C(=O)/C=C/c2cc3ccccc3n(Cc3cn(-c4ccccc4)nn3)c2=O)c1` [Compound 66], the selectivity ratio at 48 h is over 15.

With `COc1ccc(-n2cc(Cn3c(=O)c(/C=C/C(=O)c4ccc(C)cc4)cc4ccccc43)nn2)cc1` [Compound 28], the selectivity ratio at 48 h is at least 14.

Take `Cc1ccc(-n2cc(Cn3c(=O)c(/C=C/C(=O)c4ccccc4F)cc4ccccc43)nn2)cc1` [Compound 32]: the selectivity ratio at 48 h was determined as 5.5.

Turning to `COc1ccccc1C(=O)/C=C/c1cc2ccccc2n(Cc2cn(-c3ccc(F)cc3)nn2)c1=O` [Compound 47], the selectivity ratio at 48 h is at least 7.

On to `O=C(/C=C/c1cc2ccccc2n(Cc2cn(-c3ccccc3)nn2)c1=O)c1ccccc1F` [Compound 59], for which the selectivity ratio at 48 h came out at 5.9.

With `O=C(/C=C/c1cc2ccccc2n(Cc2cn(-c3ccc(F)cc3)nn2)c1=O)c1ccc(F)cc1` [Compound 43], the selectivity ratio at 48 h worked out at 5.8.

Still in this series, the particulars now being: human (Caco-2 cells) versus Giardia intestinalis, Caco-2, SI = IC50,Caco-2/IC50,Giardia; Giardia under microaerobiosis; read-out: Selectivity (IC50,Caco/IC50,Giardia) Microaerobiosis.
Turning to `COc1cccc(C(=O)/C=C/c2cc3ccccc3n(Cc3cn(-c4ccccc4)nn3)c2=O)c1` [Compound 66], the selectivity ratio at 48 h was over 30.

With `COc1ccc(-n2cc(Cn3c(=O)c(/C=C/C(=O)c4ccc(C)cc4)cc4ccccc43)nn2)cc1` [Compound 28], the selectivity ratio at 48 h was at least 53.

Regarding `Cc1ccc(-n2cc(Cn3c(=O)c(/C=C/C(=O)c4ccccc4F)cc4ccccc43)nn2)cc1` [Compound 32], the selectivity ratio at 48 h came to 29.3.

`COc1ccccc1C(=O)/C=C/c1cc2ccccc2n(Cc2cn(-c3ccc(F)cc3)nn2)c1=O` [Compound 47]: the selectivity ratio at 48 h is at least 66.

Take `COc1ccc(C(=O)/C=C/c2cc3ccccc3n(Cc3cn(-c4ccc(C)cc4)nn3)c2=O)cc1` [Compound 40]: the selectivity ratio at 48 h was at least 25.

Turning to `O=C(/C=C/c1cc2ccccc2n(Cc2cn(-c3ccccc3)nn2)c1=O)c1ccccc1F` [Compound 59], the selectivity ratio at 48 h amounted to 28.

For the compound `O=C(/C=C/c1cc2ccccc2n(Cc2cn(-c3ccc(F)cc3)nn2)c1=O)c1ccc(F)cc1` [Compound 43], the selectivity ratio at 48 h was found to be 23.3.

For the origin of these results see PMC4389562, “Antigiardial activity of novel triazolyl-quinolone-based chalcone derivatives: when oxygen makes the difference” (Frontiers in Microbiology, 2015).
